From ChEMBL document CHEMBL6127052, “Discovery of membrane-targeting amphiphilic honokiol derivatives containing an oxazolethione moiety to combat methicillin-resistant Staphylococcus aureus (MRSA) infections” (Eur J Med Chem, 2024)
In brackets after ≈: the same amount, converted by molar mass.

Tests used:
[1] = test system: Staphylococcus aureus; experiment: Antibacterial activity against Staphylococcus aureus ATCC 29213 by CLSI based micro-broth dilution method; type: functional
[2] = test system: Staphylococcus aureus; experiment: Antibacterial activity against methicillin-resistant Staphylococcus aureus N315 by CLSI based micro-broth dilution method; type: functional
[3] = test system: Staphylococcus aureus; experiment: Antibacterial activity against methicillin-resistant Staphylococcus aureus clinical isolate M11 by CLSI based micro-broth dilution method; type: functional
[4] = test system: Staphylococcus aureus; experiment: Antibacterial activity against methicillin-resistant Staphylococcus aureus clinical isolate M12 by CLSI based micro-broth dilution method; type: functional
[5] = test system: Staphylococcus aureus; experiment: Antibacterial activity against methicillin-resistant Staphylococcus aureus clinical isolate M13 by CLSI based micro-broth dilution method; type: functional
[6] = test system: Staphylococcus aureus; experiment: Antibacterial activity against methicillin-resistant Staphylococcus aureus clinical isolate M14 by CLSI based micro-broth dilution method; type: functional
[7] = test system: Staphylococcus aureus; experiment: Antibacterial activity against methicillin-resistant Staphylococcus aureus clinical isolate M16 by CLSI based micro-broth dilution method; type: functional
[8] = test system: Staphylococcus aureus; experiment: Antibacterial activity against methicillin-resistant Staphylococcus aureus clinical isolate M17 by CLSI based micro-broth dilution method; type: functional
[9] = test system: Staphylococcus aureus; experiment: Antibacterial activity against methicillin-resistant Staphylococcus aureus clinical isolate M20 by CLSI based micro-broth dilution method; type: functional
[10] = test system: Staphylococcus aureus; experiment: Antibacterial activity against methicillin-resistant Staphylococcus aureus clinical isolate M21 by CLSI based micro-broth dilution method; type: functional
[11] = test system: Staphylococcus aureus; experiment: Antibacterial activity against methicillin-resistant Staphylococcus aureus clinical isolate M22 by CLSI based micro-broth dilution method; type: functional
[12] = test system: Staphylococcus aureus; experiment: Antibacterial activity against methicillin-resistant Staphylococcus aureus clinical isolate M23 by CLSI based micro-broth dilution method; type: functional
[13] = test system: Escherichia coli; experiment: Antibacterial activity against Escherichia coli ATCC 25922 by CLSI based micro-broth dilution method; type: functional
[14] = Hemolytic activity in sheep erythrocytes incubated for 1 hr by absorbance based assay; type: toxicity, cell-based, Ovis aries, Erythrocyte
[15] = Selectivity index, ratio of HC50 for hemolytic activity in sheep erythrocytes to MIC for antibacterial activity against Staphylococcus aureus ATCC 29213; type: toxicity, cell-based, RBC

## C=CCc1cc(-c2ccc(OCCC[N+](C)(C)CC(=O)NCCCC)c(CC=C)c2)c2oc(=S)n(Cc3cc(Br)ccc3F)c2c1.[Br-]
[1]
  MIC: 16 µg/mL
[2]
  MIC: 16 µg/mL
[3]
  MIC: 8 µg/mL
[4]
  MIC: 8 µg/mL
[5]
  MIC: 16 µg/mL
[6]
  MIC: 8 µg/mL
[7]
  MIC: 8 µg/mL
[8]
  MIC: 32 µg/mL
[9]
  MIC: 8 µg/mL
[10]
  MIC: 8 µg/mL
[11]
  MIC: 16 µg/mL
[12]
  MIC: 16 µg/mL
[13]
  MIC: > 128 µg/mL
[14]
  HC50 at 1 h: > 160 µg/mL
[15]
  selectivity ratio: > 10

## C=CCc1cc(-c2ccc(OCCC[N+](C)(C)CC(=O)NCCCC)c(CC=C)c2)c2oc(=S)n(Cc3ccc(F)c(F)c3)c2c1.[Br-]
[1]
  MIC: 4 µg/mL
[2]
  MIC: 16 µg/mL
[3]
  MIC: 4 µg/mL
[4]
  MIC: 4 µg/mL
[5]
  MIC: 2 µg/mL
[6]
  MIC: 2 µg/mL
[7]
  MIC: 4 µg/mL
[8]
  MIC: 4 µg/mL
[9]
  MIC: 4 µg/mL
[10]
  MIC: 4 µg/mL
[11]
  MIC: 4 µg/mL
[12]
  MIC: 4 µg/mL
[13]
  MIC: > 128 µg/mL
[14]
  HC50 at 1 h: 68.4 µg/mL
[15]
  selectivity ratio: 10.4

## C=CCc1cc(-c2ccc(OCCC[N+](C)(C)CC(=O)NCCCC)c(CC=C)c2)c2oc(=S)n(Cc3ccc(F)c(Cl)c3)c2c1.[Br-]
[1]
  MIC: 128 µg/mL
[2]
  MIC: 64 µg/mL
[3]
  MIC: 16 µg/mL
[4]
  MIC: 8 µg/mL
[5]
  MIC: 16 µg/mL
[6]
  MIC: 32 µg/mL
[7]
  MIC: 16 µg/mL
[8]
  MIC: 16 µg/mL
[9]
  MIC: 16 µg/mL
[10]
  MIC: 8 µg/mL
[11]
  MIC: 32 µg/mL
[12]
  MIC: 32 µg/mL
[13]
  MIC: > 128 µg/mL
[14]
  HC50 at 1 h: > 160 µg/mL
[15]
  selectivity ratio: > 1.25

## C=CCc1cc(-c2ccc(OCCC[N+](C)(C)CC(=O)NCCCC)c(CC=C)c2)c2oc(=S)n(Cc3ccc(Br)cc3)c2c1.[Br-]
[1]
  MIC: 32 µg/mL
[2]
  MIC: 32 µg/mL
[3]
  MIC: 16 µg/mL
[4]
  MIC: 16 µg/mL
[5]
  MIC: 16 µg/mL
[6]
  MIC: 16 µg/mL
[7]
  MIC: 16 µg/mL
[8]
  MIC: 16 µg/mL
[9]
  MIC: 16 µg/mL
[10]
  MIC: 16 µg/mL
[11]
  MIC: 32 µg/mL
[12]
  MIC: 16 µg/mL
[13]
  MIC: > 128 µg/mL
[14]
  HC50 at 1 h: 489 µg/mL
[15]
  selectivity ratio: 15.3

## C=CCc1cc(-c2ccc(OCCC[N+](C)(C)CC(=O)NCCCC)c(CC=C)c2)c2oc(=S)n(Cc3ccc(Cl)cc3Br)c2c1.[Br-]
[1]
  MIC: > 128 µg/mL
[2]
  MIC: 128 µg/mL
[3]
  MIC: 128 µg/mL
[4]
  MIC: > 128 µg/mL
[5]
  MIC: > 128 µg/mL
[6]
  MIC: > 128 µg/mL
[7]
  MIC: 128 µg/mL
[8]
  MIC: > 128 µg/mL
[9]
  MIC: > 128 µg/mL
[10]
  MIC: 128 µg/mL
[11]
  MIC: 128 µg/mL
[12]
  MIC: 128 µg/mL
[13]
  MIC: > 128 µg/mL
[14]
  HC50 at 1 h: 95.8 µg/mL
[15]
  selectivity ratio: 0.7

## C=CCc1cc(-c2ccc(OCCC[N+](C)(C)CC(=O)NCCCC)c(CC=C)c2)c2oc(=S)n(Cc3cccc(Br)c3)c2c1.[Br-]
[1]
  MIC: 16 µg/mL
[2]
  MIC: 16 µg/mL
[3]
  MIC: 8 µg/mL
[4]
  MIC: 8 µg/mL
[5]
  MIC: 8 µg/mL
[6]
  MIC: 8 µg/mL
[7]
  MIC: 8 µg/mL
[8]
  MIC: 32 µg/mL
[9]
  MIC: 8 µg/mL
[10]
  MIC: 16 µg/mL
[11]
  MIC: 32 µg/mL
[12]
  MIC: 16 µg/mL
[13]
  MIC: > 128 µg/mL
[14]
  HC50 at 1 h: > 160 µg/mL
[15]
  selectivity ratio: > 10

## C=CCc1ccc(O)c(-c2ccc(O)c(CC=C)c2)c1 [HONOKIOL]
[1]
  MIC: 32 µg/mL (≈ 120 µM)
[2]
  MIC: 8 µg/mL (≈ 30 µM)
[3]
  MIC: 16 µg/mL (≈ 60.1 µM)
[4]
  MIC: 8 µg/mL (≈ 30 µM)
[5]
  MIC: 16 µg/mL (≈ 60.1 µM)
[6]
  MIC: 16 µg/mL (≈ 60.1 µM)
[7]
  MIC: 16 µg/mL (≈ 60.1 µM)
[8]
  MIC: 16 µg/mL (≈ 60.1 µM)
[9]
  MIC: 8 µg/mL (≈ 30 µM)
[10]
  MIC: 16 µg/mL (≈ 60.1 µM)
[11]
  MIC: 16 µg/mL (≈ 60.1 µM)
[12]
  MIC: 16 µg/mL (≈ 60.1 µM)
[13]
  MIC: > 128 µg/mL
[14]
  HC50 at 1 h: > 80 µg/mL
[15]
  selectivity ratio: > 2.5

## C=CCc1cc(-c2ccc(OCCC[N+](C)(C)CC(=O)NCCCC)c(CC=C)c2)c2oc(=S)n(Cc3cc(Cl)cc(Cl)c3)c2c1.[Br-]
[1]
  MIC: 64 µg/mL
[2]
  MIC: 64 µg/mL
[3]
  MIC: 32 µg/mL
[4]
  MIC: 8 µg/mL
[5]
  MIC: 32 µg/mL
[6]
  MIC: 32 µg/mL
[7]
  MIC: 32 µg/mL
[8]
  MIC: 32 µg/mL
[9]
  MIC: 16 µg/mL
[10]
  MIC: 16 µg/mL
[11]
  MIC: 32 µg/mL
[12]
  MIC: 32 µg/mL
[13]
  MIC: > 128 µg/mL
[14]
  HC50 at 1 h: 31.3 µg/mL
[15]
  selectivity ratio: 0.5

## C=CCc1cc(-c2ccc(OCCC[N+](C)(C)CC(=O)NCCCC)c(CC=C)c2)c2oc(=S)n(Cc3ccc(OC)cc3)c2c1.[Br-]
[1]
  MIC: 32 µg/mL
[2]
  MIC: 32 µg/mL
[3]
  MIC: 2 µg/mL
[4]
  MIC: 2 µg/mL
[5]
  MIC: 4 µg/mL
[6]
  MIC: 2 µg/mL
[7]
  MIC: 4 µg/mL
[8]
  MIC: 16 µg/mL
[9]
  MIC: 2 µg/mL
[10]
  MIC: 2 µg/mL
[11]
  MIC: 8 µg/mL
[12]
  MIC: 8 µg/mL
[13]
  MIC: > 128 µg/mL
[14]
  HC50 at 1 h: 57.4 µg/mL
[15]
  selectivity ratio: 1.8

## C=CCc1cc(-c2ccc(OCCC[N+](C)(C)CC(=O)NCCCC)c(CC=C)c2)c2oc(=S)n(Cc3ccccc3)c2c1.[Br-]
[1]
  MIC: 8 µg/mL
[2]
  MIC: 8 µg/mL
[3]
  MIC: 4 µg/mL
[4]
  MIC: 4 µg/mL
[5]
  MIC: 4 µg/mL
[6]
  MIC: 4 µg/mL
[7]
  MIC: 4 µg/mL
[8]
  MIC: 8 µg/mL
[9]
  MIC: 8 µg/mL
[10]
  MIC: 4 µg/mL
[11]
  MIC: 4 µg/mL
[12]
  MIC: 4 µg/mL
[13]
  MIC: > 128 µg/mL
[14]
  HC50 at 1 h: > 160 µg/mL
[15]
  selectivity ratio: > 20

## C=CCc1cc(-c2ccc(OCCC[N+](C)(C)CC(=O)NCCCC)c(CC=C)c2)c2oc(=S)n(Cc3ccc(Cl)cc3)c2c1.[Br-]
[1]
  MIC: 16 µg/mL
[2]
  MIC: 32 µg/mL
[3]
  MIC: 4 µg/mL
[4]
  MIC: 4 µg/mL
[5]
  MIC: 8 µg/mL
[6]
  MIC: 16 µg/mL
[7]
  MIC: 8 µg/mL
[8]
  MIC: 8 µg/mL
[9]
  MIC: 4 µg/mL
[10]
  MIC: 4 µg/mL
[11]
  MIC: 8 µg/mL
[12]
  MIC: 16 µg/mL
[13]
  MIC: > 128 µg/mL
[14]
  HC50 at 1 h: 519 µg/mL
[15]
  selectivity ratio: 32.5

## C=CCc1cc(-c2ccc(OCCC[N+](C)(C)CC(=O)NCCCC)c(CC=C)c2)c2oc(=S)n(Cc3cccc(Cl)c3Cl)c2c1.[Br-]
[1]
  MIC: 32 µg/mL
[2]
  MIC: 64 µg/mL
[3]
  MIC: 16 µg/mL
[4]
  MIC: 8 µg/mL
[5]
  MIC: 64 µg/mL
[6]
  MIC: 32 µg/mL
[7]
  MIC: 64 µg/mL
[8]
  MIC: 64 µg/mL
[9]
  MIC: 8 µg/mL
[10]
  MIC: 8 µg/mL
[11]
  MIC: 64 µg/mL
[12]
  MIC: 64 µg/mL
[13]
  MIC: > 128 µg/mL
[14]
  HC50 at 1 h: 22 µg/mL
[15]
  selectivity ratio: 0.7

## C=CCc1cc(-c2ccc(OCCC[N+](C)(C)CC(=O)NCCCC)c(CC=C)c2)c2oc(=S)n(Cc3ccc(F)cc3Cl)c2c1.[Br-]
[1]
  MIC: 32 µg/mL
[2]
  MIC: 32 µg/mL
[3]
  MIC: 16 µg/mL
[4]
  MIC: 32 µg/mL
[5]
  MIC: 64 µg/mL
[6]
  MIC: 16 µg/mL
[7]
  MIC: 16 µg/mL
[8]
  MIC: 64 µg/mL
[9]
  MIC: 16 µg/mL
[10]
  MIC: 16 µg/mL
[11]
  MIC: 64 µg/mL
[12]
  MIC: 32 µg/mL
[13]
  MIC: > 128 µg/mL
[14]
  HC50 at 1 h: > 160 µg/mL
[15]
  selectivity ratio: > 5
